In PubChem BioAssay AID743443 (The Scripps Research Institute Molecular Screening Center, 2014):
Active and inactive are the calls of the source. No rule for the calls is given here.

target: Sphingosine 1-phosphate receptor 5 (Homo sapiens) (UniProt Q9H228); assay: antagonism at human S1PR5 – cell-based, FRET, dose response, selectivity assay for S1PR3 antagonist project, late-stage follow-up (AID 743443); conditions: S1P5 FRET cell-based antagonist assay
Sequence (Q9H228 whole entry, looked up): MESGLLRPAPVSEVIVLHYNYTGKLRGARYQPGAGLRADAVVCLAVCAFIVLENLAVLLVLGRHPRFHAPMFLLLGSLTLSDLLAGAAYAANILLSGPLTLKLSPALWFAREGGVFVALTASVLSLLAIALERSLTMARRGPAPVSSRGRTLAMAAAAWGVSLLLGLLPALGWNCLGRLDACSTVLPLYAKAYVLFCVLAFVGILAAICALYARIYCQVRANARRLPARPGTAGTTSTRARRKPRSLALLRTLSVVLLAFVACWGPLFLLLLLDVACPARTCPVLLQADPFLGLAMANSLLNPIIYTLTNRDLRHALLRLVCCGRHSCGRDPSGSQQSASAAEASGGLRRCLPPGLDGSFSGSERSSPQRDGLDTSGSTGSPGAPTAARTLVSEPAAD

Compound | IC50
O=C(NC(c1ccccc1)c1nc(-c2ccccc2)no1)c1cccc(Cl)n1 (stereo not given) | inactive
O=C(NC(c1cccc(Cl)c1)c1nc(-c2ccccc2)no1)c1ccc(Cl)c(Cl)c1 (stereo not given) | > 28.2 µM (inactive)
O=C(NC(c1cccc(Cl)c1)c1nc(-c2ccccc2)no1)c1cc(Cl)cc(Cl)c1 (stereo not given) | > 28.2 µM (inactive)
O=C(NC(c1ccc(Cl)c(Cl)c1)c1nc(-c2ccccc2)no1)c1ccc(Cl)c(Cl)c1 (stereo not given) | > 28.2 µM (inactive)
COc1ccc(C(=O)NC(c2ccccc2)c2nc(-c3ccccc3)no2)cc1 (stereo not given) | > 28.2 µM (inactive)
N#Cc1ccc(C(=O)NC(c2ccc(Cl)c(Cl)c2)c2nc(-c3ccccc3)no2)cc1 (stereo not given) | inactive
O=C(c1cccc(Cl)c1)N(CCO)C(c1ccc(Cl)c(Cl)c1)c1nc(-c2ccccc2)no1 (stereo not given) | 9.9 µM
Cc1ccc(C(=O)NC(c2ccccc2)c2nc(-c3ccccc3)no2)cc1 (stereo not given) | > 28.2 µM (inactive)
O=C(NC(c1ccccc1)c1nc(-c2ccccc2)no1)c1ccc(Cl)cc1 (stereo not given) | > 28.2 µM (inactive)
O=C(NC(c1ccc(Cl)c(Cl)c1)c1nc(-c2ccccc2)no1)c1ccccc1 (stereo not given) | > 28.2 µM (inactive)
O=C(NC(Cc1ccccc1)c1nc(-c2ccccc2)no1)c1cccc(Cl)c1 (stereo not given) | inactive
O=C(NC(c1ccccc1)c1nc(-c2ccccc2)no1)c1cccc(Br)c1 (stereo not given) | > 28.2 µM (inactive)
O=C(NC(c1ccc(Br)cc1)c1nc(-c2ccccc2)no1)c1ccc(Cl)c(Cl)c1 (stereo not given) | > 28.2 µM (inactive)
O=C(NC(c1nc(-c2ccccc2)no1)C1CCOCC1)c1ccc(Cl)c(Cl)c1 (stereo not given) | > 28.2 µM (inactive)

Second part, the compound after the results:

IC50 | Compound
> 28.2 µM (inactive) | O=C(NC(c1ccccc1)c1nc(-c2ccccc2)no1)c1cccc(Cl)c1 (stereo not given)
inactive | O=C(NC(c1ccc(Cl)c(Cl)c1)c1nc(-c2ccccc2)no1)c1cccc(Cl)c1 (stereo not given)
inactive | O=C(NC(c1ccc(Cl)cc1)c1nc(-c2ccccc2)no1)c1cccc(Br)c1 (stereo not given)
> 28.2 µM (inactive) | O=C(NC(c1ccc(Cl)cc1)c1nc(-c2ccccn2)no1)c1cccc(Cl)c1 (stereo not given)
> 28.2 µM (inactive) | O=C(NC(c1ccc(Cl)cc1)c1nc(-c2ccccc2)no1)c1cccc(Cl)c1 (stereo not given)
5.1 µM | O=C(NC(c1cccc(Cl)c1)c1nc(-c2ccccc2)no1)c1cccc(Cl)c1 (stereo not given)
> 28.2 µM (inactive) | O=C(NC(c1ccc(Cl)cc1)c1nc(-c2cccc(Cl)c2)no1)c1cccc(Cl)c1 (stereo not given)
> 28.2 µM (inactive) | CCc1ccc(C(NC(=O)c2cccc(Cl)c2)c2nc(-c3ccccc3)no2)cc1 (stereo not given)
> 28.2 µM (inactive) | O=C(NC(c1ccc(Cl)cc1)c1nc(-c2ccccc2)no1)c1ccc(Cl)c(Cl)c1 (stereo not given)
inactive | O=C(NC(c1ccc(Cl)c(Cl)c1)c1nc(-c2ccccc2)no1)c1ccc(Cl)cc1 (stereo not given)
> 28.2 µM (inactive) | O=C(NC(c1ccc(Cl)cc1)c1nc(-c2ccccc2)no1)c1ccc(Cl)c(Br)c1 (stereo not given)
